In patent publication US9840512B2, “Antidiabetic bicyclic compounds” (Merck Sharp & Dohme Corp., priority 2013, dated 2017):

Key:
human GPR40 [1] = target: T1, human GPR40 (Homo sapiens, UniProt O14842); test: FLIPR assay (agonist-induced calcium mobilization); details: for EC50: Human FLIPR EC50, nM or % activation (EC50 values), GPR40/CHO NFAT BLA cells; for activation at 10 µM: CHONFAT, read-out: Human FLIPR EC50, nM or % activation (% activation values)
Description: Human and mouse GPR40 stable cell-lines were generated in CHO cells stably expressing NFAT BLA (Beta-lactamase). […] The expression plasmids were transfected using lipofectamine (Life Technologies) following manufacturer's instructions. Stable cell-lines were generated following drug selection.
FLIPR (Fluorimetric Imaging Plate Reader, Molecular Devices) assays were performed to measure agonist-induced calcium mobilization of the stable clones. For the FLIPR assay, one day before assay, GPR40/CHO NFAT BLA cells were seeded into black-wall-clear-bottom 384-well plates (Costar) at 1.4×10e4 cells/20 μL medium/well. The cells were incubated with 20 μl/well of the assay buffer (HBSS, 0.1% BSA, 20 mM HEPES, 2.5 mM probenecid, pH 7.4) containing 8 μM fluo-4, AM, 0.08% pluronic acid at room temperature for 100 minutes. Fluorescence output was measured using FLIPR. Compounds were dissolved in DMSO and diluted to desired concentrations with assay buffer.

human GPR40 [2] = target: T1, human GPR40; test: Inositol Phosphate Turnover (IP1) Assay 1; details: Human IP1 Assay 1, EC50, nM, HEK cells stably expressing human GPR40
Description: The assay is performed in 96-well format. HEK cells stably expressing human GPR40 are plated to be 60-80% confluent within 72 h. After 72 h, the plates are aspirated and the cells washed with inositol-free DMEM (ICN). The wash media is replaced with 150 μL of 3H-inositol labeling media (inositol-free media containing 0.4% human albumin or 0.4% mouse albumin, 1× pen/strep antibiotics, glutamine, 25 mM HEPES to which is added 3H-myo-inositol NEN #NET114A 1 mCi/mL, 25 Ci/mmol diluted 1:150 in loading media with a final specific radioactivity of 1 μCi/150 μL). Alternatively, the human and mouse albumin can be added after the overnight labeling step before the addition of LiCl.
The assay is typically run the next day after 18 h labeling. On the day of the assay, 5 μL of 300 mM LiCl is added to all wells and incubated at 37 degrees for 20 min. 0.75 μL of 200× compounds are added and incubated with the cells for 60 min at 37 degrees. The media is then aspirated off and the assay terminated with the addition of 60 μL 10 mM formic acid. The cells are lysed for 60 min at room temperature. 15-30 μL of lysate is mixed with 70 μL/1 mg YSi SPA beads (Amersham) in clear bottom Isoplates. The plates are shaken for 2 h at room temperature. Beads are allowed to settle and the plates are counted in the Wallac Microbeta.

T1 sequence (O14842 whole entry): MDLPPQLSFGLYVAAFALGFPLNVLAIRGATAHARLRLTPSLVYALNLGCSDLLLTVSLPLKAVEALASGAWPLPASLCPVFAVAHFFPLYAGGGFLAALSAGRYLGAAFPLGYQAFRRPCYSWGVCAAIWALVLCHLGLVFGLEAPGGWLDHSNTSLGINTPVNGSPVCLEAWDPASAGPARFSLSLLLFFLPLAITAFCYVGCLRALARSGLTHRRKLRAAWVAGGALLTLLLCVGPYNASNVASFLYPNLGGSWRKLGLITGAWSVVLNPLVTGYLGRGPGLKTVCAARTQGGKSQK

Row | EC50 (human GPR40 [1]) [nM] | EC50 (human GPR40 [2]) [nM] | activation at 10 µM (human GPR40 [1]) [%] | SMILES
1 | 76 | 710 | – | CC#CC(CC(=O)O)c1ccc2c(c1)CCC(c1nc(-c3c(C)cccc3C)ccc1F)O2 (mixture of isomers) [Example 16]
2 | 106 | 4500 | – | CC#CC(CC(=O)O)c1ccc2c(c1)CCC(c1nc(-c3ccc(OC)nc3C)ccc1F)O2 (mixture of isomers) [Example 19]
3 | 151 | 638 | – | CC#CC(CC(=O)O)c1ccc2c(c1)CCC(c1cccc(-c3c(C)noc3C)c1)O2 (mixture of isomers) [Example 22]
4 | 40 | 116 | – | CC#CC(CC(=O)O)c1ccc2c(c1)CCC(c1cccc(Oc3ccc(C#N)cc3)c1)O2 (mixture of isomers) [Example 23]
5 | 57 | 58 | – | CC#CC(CC(=O)O)c1ccc2c(c1)CCC(c1cc(-c3ccc(OC)nc3C)ccc1F)O2 (mixture of isomers) [Example 24]
6 | 52 | 726 | – | CC#CC(CC(=O)O)c1ccc2c(c1)CCC(c1cccc(-c3ccccc3C(F)(F)F)c1)O2 (mixture of isomers) [Example 27]
7 | 115 | 536 | – | CC#CC(CC(=O)O)c1ccc2c(c1)CCC(c1cc(Br)ccc1F)O2 (mixture of isomers) [Example 28]
8 | 95 | 60 | – | CC#C[C@@H](CC(=O)O)c1ccc2c(c1)CCC(c1cc(-c3cccnc3C(F)(F)F)ccc1F)O2 (mixture of isomers) [Example 31]
9 | 57 | 149 | – | CC#C[C@@H](CC(=O)O)c1ccc2c(c1)CCC(c1cccc(-c3cccc4c3c(C(F)(F)F)nn4C)c1)O2 (mixture of isomers) [Example 32]
10 | 114 | 1300 | – | CC#C[C@@H](CC(=O)O)c1ccc2c(c1)CCC(c1cc(C3=CCCC3(C)C)ccc1F)O2 (mixture of isomers) [Example 33]
11 | 69 | 6060 | – | CC(C)=CC(CC(=O)O)c1ccc2c(c1)CCC(c1cccc(-c3c(C)cccc3C)c1)O2 (mixture of isomers) [Example 44]
12 | 9 | 877 | – | CC#C[C@@H](CC(=O)O)c1ccc2c(c1)CCC(c1ccc(OCc3ccccc3)cc1)O2 (mixture of isomers) [Example 50]
13 | 105 | 1200 | – | CC#C[C@@H](CC(=O)O)c1ccc2c(c1)CCC(c1ccc(-c3cc(OC)ccc3F)cc1)O2 (mixture of isomers) [Example 51]
14 | 17 | 248 | – | CC#C[C@@H](CC(=O)O)c1ccc2c(c1)CCC(c1ccc(OCc3ccccc3)c(-c3c(C)cccc3C)c1)O2 (mixture of isomers) [Example 52]
15 | 51 | 2520 | – | Cc1ccccc1-c1cc(F)c(C2CCc3cc4c(cc3O2)OC[C@H]4CC(=O)O)cc1-c1ccccc1C (mixture of isomers) [Example 59]
16 | 292 | 3630 | – | Cc1cccc(C)c1-c1ccc(F)c(C2CCc3cc(CCC(=O)O)ccc3O2)n1 (racemic) [Example 3]

Row | EC50 (human GPR40 [1]) [nM] | EC50 (human GPR40 [2]) [nM] | activation at 10 µM (human GPR40 [1]) [%] | SMILES
17 | 185 | 1700 | – | Cc1cc(OCCS(C)(=O)=O)cc(C)c1-c1cccc(C2CCc3cc(CCC(=O)O)ccc3O2)c1 (racemic) [Example 6]
18 | 12 | 1020 | – | COc1ccc(F)c(-c2ccc(C3CCc4ccc(CCC(=O)O)cc4O3)cc2C2=CCCC2(C)C)c1 (racemic) [Example 48]
19 | 38 | 544 | – | Cc1cccc(C)c1-c1cccc(C2CCc3cc(CCC(=O)O)ccc3O2)c1 (single isomer, unassigned) [Example 4]
20 | 85 | 1670 | – | Cc1cccc(C)c1-c1cccc(C2CCc3cc(CCC(=O)O)ccc3O2)c1 (single isomer, unassigned) [Example 5]
21 | 26 | 83 | – | CC#C[C@@H](CC(=O)O)c1ccc2c(c1)CCC(c1cc(-c3c(C)cccc3C)ccc1F)O2 (single isomer, unassigned) [Example 21]
22 | 37 | 31 | – | CC#C[C@@H](CC(=O)O)c1ccc2c(c1)CCC(c1cc(-c3cccnc3C(F)(F)F)ccc1F)O2 (single isomer, unassigned) [Example 35]
23 | 38 | 47 | – | CC#C[C@@H](CC(=O)O)c1ccc2c(c1)CCC(c1cc(-c3ccc(OC)nc3C)ccc1F)O2 (single isomer, unassigned) [Example 37]
24 | 83 | 1690 | – | CC#C[C@@H](CC(=O)O)c1ccc2c(c1)CCC(c1cc(-c3ccc(OC)nc3C)ccc1F)O2 (single isomer, unassigned) [Example 38]
25 | 64 | 175 | – | CC#C[C@@H](CC(=O)O)c1ccc2c(c1)CCC(c1cccc(-c3cccc4c3c(C(F)(F)F)nn4C)c1)O2 (single isomer, unassigned) [Example 41]
26 | 74 | 1220 | – | CC#C[C@@H](CC(=O)O)c1ccc2c(c1)CCC(c1cccc(-c3cccc4c3c(C(F)(F)F)nn4C)c1)O2 (single isomer, unassigned) [Example 42]
27 | 102 | 1210 | – | Cc1cccc(C)c1-c1cccc(C2CCc3cc(CCC(=O)O)ccc3O2)c1 (stereo not drawn) [Example 1, 3-(2-(2′,6′-dimethyl-[1,1′-biphenyl]-3-yl)chroman-6-yl)propanoic acid]
28 | – | – | 41 | COc1cccc(C(CC(=O)O)c2ccc3c(c2)CCC(c2cccc(-c4c(C)cccc4C)c2)O3)c1 (stereo not drawn) [Example 46]
29 | – | – | 61 | COc1ccc(C(CC(=O)O)c2ccc3c(c2)CCC(c2cccc(-c4c(C)cccc4C)c2)O3)cc1 (stereo not drawn) [Example 47]
30 | 247 | – | – | Cc1cccc(C)c1-c1cccc(C2CCc3cc4c(cc3O2)OC[C@H]4CC(=O)O)c1 (stereo partly drawn) [Example 55, 2-((3S)-7-(2′,6′-dimethyl-[1,1′-biphenyl]-3-yl)-3,5,6,7-tetrahydro-2H-furo[3,2-g]chromen-3-yl)acetic acid]
31 | 117 | 1910 | – | Cc1ccccc1-c1ccc(F)c(C2CCc3cc4c(cc3O2)OC[C@H]4CC(=O)O)c1 (stereo partly drawn) [Example 56]
32 | 1050 | – | – | Cc1ccccc1-c1ccc(C2CCc3cc4c(cc3O2)OC[C@H]4CC(=O)O)c(F)c1 (stereo partly drawn) [Example 57]
